From article PMC7179205, “An Improved Synthesis of Key Intermediate to the Formation of Selected Indolin-2-Ones Derivatives Incorporating Ultrasound and Deep Eutectic Solvent (DES) Blend of Techniques, for Some Biological Activities and Molecular Docking Studies” (Molecules, 2020)
Values joined by “and” are separate entries in the source; they are usually repeats but may differ in a detail not shown here. Equal values may be shown once. “Also recorded” adds a separate entry of the source. Read-outs that look alike come from different tables or passages of the source. One block for each compound: values may come before it.

What was measured:
[1] = test system: Rat Paw Edema; assay: carrageenan-induced hind paw edema method (anti-inflammatory activity); format: in vivo, Wistar albino rats; conditions: for inhibition in vivo at 10 mg/kg: Rattus norvegicus, po; for inhibition in vivo at 10 mg/kg / % Age Inhibition of Rat Paw Edema, 4 H / anti-inflammatory activity (in words): oral dose 10 mg/kg; for inhibition in vivo at 10 mg/kg / % Age Inhibition of Rat Paw Edema, 4 H: mean ± SEM; for Potency (anti-inflammatory): relative to indomethacin = 1.00; for anti-inflammatory activity (in words): compared with standard indomethacin
Description: The anti-inflammatory activity of the synthesized compounds (4a–n) was evaluated by the carrageenan-induced paw edema method. An oral dose of 10 mg/kg was used for compounds and compared with the standard. Anti-inflammatory activity was accessed through percentage inhibition after 2 and 4 h (Table 1).
Compounds produced were assessed for their anti-inflammatory activity using the carrageenan-induced hind paw edema method. The anti-inflammatory activity was carried out using Wistar albino rats of either sex (150–220 g) using a Digital Plethysmometer (Model No. 7140, UGO BASILE). The edema was induced by using 1% carrageenan solution. Indomethacin was used as a standard drug. The anti-inflammatory activity of the standard drug and tested compounds was determined at a dose of 10 mg/kg body weight. The animals were divided into groups containing six animals each and the initial paw volume of each rat was noted by the NaCl displacement method. One group was kept as control, one as standard, and the rest of the groups of compounds were to be tested. To the control group, 1% CMC solution was administered p.o. To the standard group, the standard drug was administered orally. To the test group, tested compounds were administered orally. After 60 min of the 1% CMC solution/standard drug/test compound administration, 0.1 ml of 1% (w/v) carrageenan was injected in the plantar region of the hind limb (right) of all the rats in each group including the control group. The paw volume was again measured after the time interval of 2 and 4 h. Using the following formula, inflammation was calculated as percentage inhibition for the test and reference compounds
(Final foot volume of control—final foot volume of std./test) × 100 / final foot volume of control)

[2] = test system: acetic acid-induced writhing; assay: acetic acid-induced writhing method (analgesic activity); format: in vivo, Swiss albino mice; conditions: for inhibition in vivo at 10 mg/kg: Mus musculus, read-out: % Analgesic Activity; for Potency (analgesic): relative to indomethacin = 1.00; for Mean with ± SEM: writhes counted for 15 min; for analgesic activity (in words): compared with standard indomethacin
Description: All the tested compounds and standard drugs are evaluated at 10 mg/kg oral dose.
The analgesic activity of the tested compounds was carried out by acetic acid-induced writhing method as given in the literature using Swiss albino mice of either sex (25–35 g). The writh were induced in the albino mice using an intraperitoneal injection of 1% acetic acid solution. The standard drug indomethacin and test compounds were evaluated at a concentration of 10 mg/kg of the body weight. The animals were divided into groups and each group consisted of six animals. One group was kept as control, one as standard, and other as test groups. To the control group, 0.1% CMC solution was administered p.o; to the standard group, the standard drug was administered orally, and to the test group, test compounds were administered orally. After 60 min of the 0.1% CMC solution/standard drug/tested compound administration, 0.1 ml of 1% (v/v) acetic acid solution in distilled water was injected intraperitoneally in all the mice in each group including the control group. The writhing (a contraction of the abdomen, turning of trunk, and extension of hind limbs) was counted after 5 min of acetic acid administration and were counted for a period of 15 min. The percentage of analgesic activity was calculated using the following formula.
(Mean wriths of control—mean wriths of std./test) / mean wriths of control) × 100

[3] = test system: gastric mucosal damage; assay: acute ulcerogenic activity (severity index of gastric mucosal damage); format: in vivo, Wistar rats; conditions: for Severity Index: test compounds 30 mg/kg oral, indomethacin 10 mg/kg or 20 mg/kg, 17 h after dose, mean ± SEM
Description: Four compounds, namely, 4c (Ar = 4-chlorophenyl), 4f (Ar = 2-chlorophenyl), 4i (Ar = 4-fluoro-3-chlorophenyl), and 4n (Ar = 2-methylphenyl) were selected for their ulcerogenic activity. This selection was based on their anti-inflammatory and analgesic activity. Compounds were evaluated at an oral dose of 30 mg/kg relative to 10 mg/kg indomethacin.
Acute ulcerogenic activity evaluation of the synthesized compounds was carried out according to the method described using Wistar rats of either sex (180–220 g). The animals were distributed into control, group, and test group. Each group consisted of six rats. All the rats fasted for 24 h with free access to water. To the control group, 1% CMC solution was administered p.o; to the standard group, indomethacin at a concentration of 20 mg/kg was administered orally; and to the test groups, tested compounds were administered orally at a concentration of 30 mg/kg. After the dose administration animals were kept for 17 h. After this, the animals were sacrificed for the appraisal of ulcerogenic assessment. The stomach was taken out from the animal body and washed with flushing water, then with a cotton swab wetted with saline (0.9%) and pinned on wax-coated try. The glandular portion of the stomach was cleaned again with saline to closely identify the presence of a type of ulcers or hemorrhage mark using a magnifying glass. The mucosal injury of the stomach was evaluated as per the following system: 0.5 = redness; 1 = spot ulcer; 1.5 = hemorrhage streak; 2 = ulcers < 3; 3 = ulcers > 3 < 5. The value obtained as a result of the mean score of the individual treated group—mean score of control is referred to as the severity index of the gastric mucosal damage.

[4] = test system: gastric tissue; assay: lipid peroxidation (MDA content of gastric tissue); format: in vivo; conditions: for MDA content (lipid peroxidation): as repeated in Table 4, the values are: MDA content (lipid peroxidation); for Nanomoles of MDA Content ± SEM/ 100 mg Tissue: gastric tissue
Description: Gastrointestinal (GI) ulceration, bleeding, and renal problems are common complications of NSAID’S consumption, which is directly related to lipid peroxidation. […] It was measured as the nmol of MDA/100 mg of gastric tissue. We have found the Lipid peroxidation value was maximum 6.71 ± 0.18 for indomethacin, whereas 3.89 ± 0.17, 4.08 ± 0.22, 4.26 ± 0.12, and 4.81 ± 0.13 for compounds 4i, 4c, 4f, and 4n, respectively.
The method adopted for lipid peroxidation is the same as Ohkawaet al. and the recent work of our researchers.

[5] = 2 h, 2 h, read-out: % Age Inhibition of Rat Paw Edema, 2 H
[6] = 4 h, 4 h, read-out: % Age Inhibition of Rat Paw Edema, 4 H

MDA content (lipid peroxidation) [4]: 4.08 ± 0.22 nmol MDA/100 mg tissue
melting point: 233 to 235 °C
Structure (SMILES): O=C1C(=NNc2nc(-c3cc4ccccc4oc3=O)cs2)c2ccccc2N1CNc1ccc(Cl)cc1 [Compound 4c, 1-[(4-Chloro-phenylamino)-methyl]-3-{[4-(2-oxo-2H-chromen-3-yl)-thiazol-2-yl]-hydrazono}-1,3-dihydro-indol-2-one]
inhibition in vivo at 10 mg/kg [1, 5]: 59.29 ± 0.143%
inhibition in vivo at 10 mg/kg [1, 6]: 30.17 ± 0.294%
Potency (anti-inflammatory) ([1]; 10 mg/kg): 0.36
inhibition in vivo at 10 mg/kg ([2]; oral dose 10 mg/kg, mean ± SEM): 59.9 ± 0.846%
Potency (analgesic) ([2]; 10 mg/kg): 0.81
Mean with ± SEM ([2]; oral dose 10 mg/kg): 13.00 ± 0.2582
Severity Index [3]: 0.666 ± 0.105
Nanomoles of MDA Content ± SEM/ 100 mg Tissue [4]: 4.08 ± 0.22 nmol of MDA/100 mg of gastric tissue and 4.26 ± 0.12 nmol of MDA/100 mg of gastric tissue

MDA content (lipid peroxidation) [4]: 4.26 ± 0.12 nmol MDA/100 mg tissue
melting point: 239 to 241 °C
Structure (SMILES): O=C1C(=NNc2nc(-c3cc4ccccc4oc3=O)cs2)c2ccccc2N1CNc1ccccc1Cl [Compound 4f, 1-[(2-chloro-phenylamino)-methyl]-3-{[4-(2-oxo-2H-chromen-3-yl)-thiazol-2-yl]-hydrazono}-1,3-dihydro-indol-2-one]
inhibition in vivo at 10 mg/kg [1, 5]: 48.38 ± 0.219%
inhibition in vivo at 10 mg/kg [1, 6]: 72.4%
% Age Inhibition of Rat Paw Edema, 4 H ([1]; 4 h, 10 mg/kg): 72.42 ± 0.183 %
anti-inflammatory activity (in words) ([1]; 10 mg/kg): good anti-inflammatory activity; also recorded: significant anti-inflammatory activity
Potency (anti-inflammatory) ([1]; 10 mg/kg): 0.88
inhibition in vivo at 10 mg/kg ([2]; oral dose 10 mg/kg, mean ± SEM): 69.36 ± 0.585%
analgesic activity (in words) ([2]; oral dose 10 mg/kg): very good analgesic activity
Potency (analgesic) ([2]; 10 mg/kg): 0.94
Mean with ± SEM ([2]; oral dose 10 mg/kg): 9.93 ± 0.386
Severity Index [3]: 0.666 ± 0.105
Nanomoles of MDA Content ± SEM/ 100 mg Tissue [4]: 4.26 ± 0.12 nmol of MDA/100 mg of gastric tissue and 4.08 ± 0.22 nmol of MDA/100 mg of gastric tissue

MDA content (lipid peroxidation) [4]: 3.89 ± 0.17 nmol MDA/100 mg tissue
melting point: 246 to 248 °C
Structure (SMILES): O=C1C(=NNc2nc(-c3cc4ccccc4oc3=O)cs2)c2ccccc2N1CNc1ccc(F)c(Cl)c1 [Compound 4i, 1-[(3-Chloro-4-fluoro-phenylamino)-methyl]-3-{[4-(2-oxo-2H-chromen-3-yl)-thiazol-2-yl]-hydrazono}-1,3-dihydro-indol-2-one]
inhibition in vivo at 10 mg/kg [1, 5]: 31.27 ± 0.188%
inhibition in vivo at 10 mg/kg [1, 6]: 63.95 ± 0.218%
anti-inflammatory activity (in words) [1]: moderate anti-inflammatory activity
Potency (anti-inflammatory) ([1]; 10 mg/kg): 0.77
inhibition in vivo at 10 mg/kg ([2]; oral dose 10 mg/kg, mean ± SEM): 66.3 ± 1.01%
analgesic activity (in words) ([2]; oral dose 10 mg/kg, 10 mg/kg): very good analgesic activity; also recorded: good analgesic activity
Potency (analgesic) ([2]; 10 mg/kg): 0.90
Mean with ± SEM ([2]; oral dose 10 mg/kg): 10.93 ± 0.3128
Severity Index [3]: 0.500 ± 0.129
Nanomoles of MDA Content ± SEM/ 100 mg Tissue [4]: 3.89 ± 0.17 nmol of MDA/100 mg of gastric tissue

MDA content (lipid peroxidation) [4]: 4.81 ± 0.13 nmol MDA/100 mg tissue
melting point: 237 to 239 °C
Structure (SMILES): Cc1ccccc1NCN1C(=O)C(=NNc2nc(-c3cc4ccccc4oc3=O)cs2)c2ccccc21 [Compound 4n, 3-{[4-(2-Oxo-2H-chromen-3-yl)-thiazol-2-yl]-hydrazono}-1-(o-tolylamino-methyl)-1,3-dihydro-indol-2-one]
inhibition in vivo at 10 mg/kg [1, 5]: 42.57 ± 0.213%
inhibition in vivo at 10 mg/kg [1, 6]: 69.58 ± 0.133%
Potency (anti-inflammatory) ([1]; 10 mg/kg): 0.84
inhibition in vivo at 10 mg/kg ([2]; oral dose 10 mg/kg, mean ± SEM): 69.14 ± 0.689%
analgesic activity (in words) ([2]; oral dose 10 mg/kg): very good analgesic activity
Potency (analgesic) ([2]; 10 mg/kg): 0.93
Mean with ± SEM ([2]; oral dose 10 mg/kg): 10.00 ± 0.3651
severity index as share of the severity shown by the standard ([3]; relative to indomethacin): 20%
Nanomoles of MDA Content ± SEM/ 100 mg Tissue [4]: 4.81 ± 0.13 nmol of MDA/100 mg of gastric tissue

Structure (SMILES): COc1ccc2c(c1)c(CC(=O)O)c(C)n2C(=O)c1ccc(Cl)cc1 [Indomethacin, reference compound]
inhibition in vivo at 10 mg/kg [1, 5]: 66.34 ± 0.051%
inhibition in vivo at 10 mg/kg [1, 6]: 82%
% Age Inhibition of Rat Paw Edema, 4 H ([1]; 4 h, 10 mg/kg): 82.05 ± 0.08%
Potency (anti-inflammatory) ([1]; 10 mg/kg): 1.00
inhibition in vivo at 10 mg/kg ([2]; oral dose 10 mg/kg, mean ± SEM): 73.6%
% Analgesic Activity ([2]; oral dose 10 mg/kg, mean ± SEM, 10 mg/kg): 73.61 ± 0.315 %
Potency (analgesic) ([2]; 10 mg/kg): 1.00
Mean with ± SEM ([2]; oral dose 10 mg/kg): 8.55 ± 0.394
Severity Index [3]: 4.500 ± 0.316
Nanomoles of MDA Content ± SEM/ 100 mg Tissue [4]: 6.71 ± 0.18 nmol of MDA/100 mg of gastric tissue
Nanomoles of MDA Content ± SEM/ 100 mg Tissue ([4]; listed as indomethacin): 6.71 ± 0.18 nmol of MDA/100 mg of gastric tissue
